In US6696479B2, “Crystalline forms” (Ciba Specialty Chemicals Corporation, priority 2001, dated 2004):
One block for each molecule: values may come before it.

Columns and labels:
[1] = Water content of highly crystalline Form A (Karl Fisher titration); type: physicochemical
Experimental: Highly crystalline Fluvastatin sodium Form A can generally be prepared by equilibration of an aqueous suspension or solution of Fluvastatin sodium for several hours at temperatures from about 0 to 10° C. and subsequent drying by lyophilization. The process can be accelerated by additional seeding with crystals of Form A during the equilibration period. A characteristic X-ray powder diffraction pattern for highly crystalline Form A is depicted in FIG. 1. The crystallinity of this material is estimated by the powder diffraction spectrum to be more than 90%. The estimated water content is below 2%.
A 30 ml aqueous solution of 30° C. containing ca. 3 grams of Fluvastatin sodium was cooled to about 2° C. and was allowed to stand at this temperature for 6 hours. Subsequently, the off-white coloured suspension was frozen using a dry-ice bath and dried by lyophilization for 24 hours. […] From its X-ray powder diffraction pattern it was estimated that the crystallinity is more than 90%, see FIG. 1.

[2] = compared with Form A or the amorphous form; from WO-A-97/49681 / U.S. Pat. No. 6,124,340; cited from earlier work
[3] = Estimated water content of crystalline forms obtained by equilibration under defined relative humidity; type: physicochemical
Text: Forms C, D, E and F can be prepared according to a process, wherein Fluvastatin sodium is exposed to an atmosphere having a defined relative humidity. […] As a rule the estimated water content can range from 3-6%. […] As a rule the estimated water content can range from 6-12%. […] As a rule the estimated water content can range from 15-22%. […] As a rule the estimated water content can range from 24-32%.

Compound: CC(C)n1c(/C=C/[C@H](O)C[C@H](O)CC(=O)[O-])c(-c2ccc(F)cc2)c2ccccc21.[Na+] (racemic) [Form A, (±)-7-(3-(4-fluorophenyl)-1-(1-methylethyl)-1H-indol-2-yl)-3,5-dihydroxy-6-heptenoic acid monosodium salt]
- water content ([1]; Karl Fisher titration, Example 1, lyophilized 24 hours): below 2%
- estimated water content ([1]; aqueous suspension or solution equilibrated at about 0 to 10° C., then lyophilization): below 2%

Compound: CC(C)n1c(/C=C/[C@H](O)C[C@H](O)CC(=O)[O-])c(-c2ccc(F)cc2)c2ccccc21.[Na+] (racemic) [Form B, (±)-7-(3-(4-fluorophenyl)-1-(1-methylethyl)-1H-indol-2-yl)-3,5-dihydroxy-6-heptenoic acid monosodium salt]
- hygroscopicity [2]: less hygroscopic than Form A or the amorphous form

Compound: CC(C)n1c(/C=C/[C@H](O)C[C@H](O)CC(=O)[O-])c(-c2ccc(F)cc2)c2ccccc21.[Na+] (racemic) [Form C, (±)-7-(3-(4-fluorophenyl)-1-(1-methylethyl)-1H-indol-2-yl)-3,5-dihydroxy-6-heptenoic acid monosodium salt]
- estimated water content ([3]; equilibration under relative humidity from about 15 to 25% (for example 6 to 24 hours)): 3-6%

Continued, values first:

- estimated water content ([3]; equilibration under relative humidity from about 30 to 50% (for example 6 to 24 hours)): 6-12%
Compound: CC(C)n1c(/C=C/[C@H](O)C[C@H](O)CC(=O)[O-])c(-c2ccc(F)cc2)c2ccccc21.[Na+] (racemic) [Form D, (±)-7-(3-(4-fluorophenyl)-1-(1-methylethyl)-1H-indol-2-yl)-3,5-dihydroxy-6-heptenoic acid monosodium salt]

- estimated water content ([3]; equilibration under relative humidity from about 55 to 75% (for example several days)): 15-22%
Compound: CC(C)n1c(/C=C/[C@H](O)C[C@H](O)CC(=O)[O-])c(-c2ccc(F)cc2)c2ccccc21.[Na+] (racemic) [Form E, (±)-7-(3-(4-fluorophenyl)-1-(1-methylethyl)-1H-indol-2-yl)-3,5-dihydroxy-6-heptenoic acid monosodium salt]

- estimated water content ([3]; equilibration under relative humidity from about 80 to 90% (for example several days)): 24-32%
Compound: CC(C)n1c(/C=C/[C@H](O)C[C@H](O)CC(=O)[O-])c(-c2ccc(F)cc2)c2ccccc21.[Na+] (racemic) [Form F, (±)-7-(3-(4-fluorophenyl)-1-(1-methylethyl)-1H-indol-2-yl)-3,5-dihydroxy-6-heptenoic acid monosodium salt]
